Laboratory results reported in BigSolDB 2.1.

NCCCCCC(=O)O
solubility (mole fraction)
Conditions | 283.15 K | 288.15 K | 293.15 K | 298.15 K | 303.15 K | 308.15 K | 313.15 K | 318.15 K | 323.15 K
in ethyl acetate | 0.000146 | 0.00016 | 0.000174 | 0.000188 | 0.0002 | 0.000221 | 0.000241 | 0.000262 | 0.000289
in isopropanol | 7.7e-05 | 8.1e-05 | 9.2e-05 | 0.000108 | 0.000123 | 0.000142 | 0.000162 | 0.000181 | 0.0002
in methyl acetate | 0.000119 | 0.000129 | 0.00014 | 0.000146 | 0.000154 | 0.000161 | 0.000166 | 0.00017 | 0.000172
in water | 0.118 | 0.126 | 0.13 | 0.137 | 0.145 | 0.152 | 0.155 | 0.16 | 0.167
